From patent US20220378721A1, “PROTEIN KINASE INHIBITORS AND USE THEREOF FOR TREATMENT OF NEURODEGENERATIVE DISEASES” (Xavier University of Louisiana, priority 2019, published 2022)
Where two headings read alike, the source gives them in different places.

Legend:
[1] = molecular target: CK1δ (Homo sapiens, UniProt P48730); test: Casein kinase 1δ inhibition assay, Z'-LYTE FRET based (ThermoFisher SelectScreen); type: biochemical; conditions: for % Inhibition CK1δ: 10 μM concentration, high-throughput screening
Description: Casein kinase 1δ Inhibition Assay: An initial high-throughput assay of the 28 commercially purchased compounds and 22 synthesized compounds were conducted at a 10 μM concentration at the ThermoFisher Select Screen facility. […] FIG. 1 sets forth their chemical structures.
These compounds were then subjected to dose response curve determination studies with the same FRET based assays at ThermoFisher Scientific. The IC50 values, defined as the concentration of the compound required to […] by 50%, of the some of the compounds from the screening were measured (Table 2).
(§1) The synthesized molecules from FIG. 5 were then analyzed for the inhibition of CK1δ and CK1ε, using in-vitro kinase inhibition assay. The in-vitro kinase inhibition assays were conducted at the ThermoPisher Select Screen Biochemical Kinase Profiling Service. It is a Z′-LYTE biochemical FRET based fluorescence assay with a coupled enzyme format that has differential sensitivity to phosphorylated and non-phosphorylated peptides upon proteolytic cleavage. An initial high-throughput in-vitro screening assay at a concentration of 10 μM for all of the compounds in FIG. 5.
(§2) Table 4 sets forth the IC50 values of inhibition of CK1δ and CK1ε by some of the compounds from FIG. 5.

[2] = molecular target: CK1ε (Homo sapiens, UniProt P49674); test: In-vitro kinase inhibition assay, Z'-LYTE FRET based (ThermoFisher SelectScreen); type: biochemical; conditions: for % Inhibition CK1ε: 10 μM concentration, high-throughput screening; for IC50: 10-point titration, 3-fold dilution from 25 μM (Table 4)
Description: as §1, §2

[3] = tested on: tau phosphorylation at Ser202 in HeLa cells; test: Inhibition of tau phosphorylation at serine 202 in HeLa cells expressing full-length Tau; type: cell-based; conditions: HeLa cells transfected with full length tau, 10 μM compound; for inhibition of tau phosphorylation of Ser202: pTau/total Tau
Description: FIG. 3A and FIG. 3B show inhibition of Tau phosphorylation by CK1δ inhibitors in HeLa cells. HeLa cervical cancer cells ectopically expressing full-length Tau protein were treated with 10 μM of the indicated compounds. Samples were prepared in triplicate. […] Actin was used as a loading control only and was not used in any later calculations. […] The Y axis reflects the average change in pTau levels divided by total Tau levels for the triplicate experiments for each compound. For normalization purposes, the vehicle control was set to 1.0 and all other values were adjusted accordingly.
For a CK1δ inhibitor to be considered a potential therapeutic for AD, the compound should be able to inhibit the phosphorylation of tau at the specific residues that are known to be phosphorylated by CK1δ. It has been shown that tau phosphorylation at Ser202/Ser205 and Ser396/Ser404 by CK1δ is not dependent on the priming by other protein kinases. Additionally, these phosphorylation sites are among those sites (Ser199, Ser 202, Ser231, Thr205, Ser396 and Ser404) that regulate the microtubule stabilizing function. Based on these evidences, Ser202 was chosen as the representative tan phosphorylation site of this study to understand the efficacy of our CK1δ inhibitors in inhibiting tau phosphorylation.
Inhibition of Tau Phosphorylation. To confirm biological relevance, the compounds identified by the FRET screens as potential CK1δ inhibitors were tested in an in vitro assay for their ability to inhibit the phosphorylation of tau at serine 202, a known target of CK1δ. LH 846, a known inhibitor of CK1δ was used as the positive control. […] In in-vitro tau phosphorylation assay in HeLa cells that were transfected with full length tau, the CK1δ inhibitors indeed lowered the tau phosphorylation levels at Ser202 by 20%-56%. Compounds 8 and 9 inhibited tau phosphorylation of Ser202 by 56% and 55%, respectively when added to HeLa cells that were transfected with and therefore overexpressed tan protein (FIG. 3).

[4] = molecular target: PIM3 (Homo sapiens, UniProt Q86V86); test: 100 kinase panel assay; type: biochemical
Text: (§3) Compound 2 (from FIG. 1) was screened against a panel of 100 kinases to understand the specificity.

[5] = molecular target: PIM1 (Homo sapiens, UniProt P11309); test: 100 kinase panel assay; type: biochemical
Text: as §3

[6] = molecular target: CSNK1D (CK1δ) (Homo sapiens, UniProt P48730); test: 100 kinase panel assay; type: biochemical
Text: as §3

[7] = 10-point titration, 3-fold dilution from 25 μM (Table 4)
[8] = 10-point titration, 3-fold dilution from 25 μM (Table 4), read-out: IC50 values of inhibition of CK1δ
[9] = dose response, FRET based assay (Table 2), read-out: CK1δ (IC50 μM)

Chain of CK1δ (P48730 whole entry): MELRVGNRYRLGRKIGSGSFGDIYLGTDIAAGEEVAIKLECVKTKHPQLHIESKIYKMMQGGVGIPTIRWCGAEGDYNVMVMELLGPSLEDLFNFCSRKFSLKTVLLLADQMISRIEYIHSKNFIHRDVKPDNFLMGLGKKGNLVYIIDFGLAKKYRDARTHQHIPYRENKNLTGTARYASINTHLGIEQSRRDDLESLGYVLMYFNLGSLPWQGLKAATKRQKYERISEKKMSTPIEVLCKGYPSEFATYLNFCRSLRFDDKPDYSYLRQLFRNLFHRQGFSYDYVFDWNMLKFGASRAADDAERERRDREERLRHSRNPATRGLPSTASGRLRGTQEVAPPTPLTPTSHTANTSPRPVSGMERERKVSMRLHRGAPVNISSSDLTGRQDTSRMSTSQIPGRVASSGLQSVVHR
Chain of CK1ε (P49674 whole entry): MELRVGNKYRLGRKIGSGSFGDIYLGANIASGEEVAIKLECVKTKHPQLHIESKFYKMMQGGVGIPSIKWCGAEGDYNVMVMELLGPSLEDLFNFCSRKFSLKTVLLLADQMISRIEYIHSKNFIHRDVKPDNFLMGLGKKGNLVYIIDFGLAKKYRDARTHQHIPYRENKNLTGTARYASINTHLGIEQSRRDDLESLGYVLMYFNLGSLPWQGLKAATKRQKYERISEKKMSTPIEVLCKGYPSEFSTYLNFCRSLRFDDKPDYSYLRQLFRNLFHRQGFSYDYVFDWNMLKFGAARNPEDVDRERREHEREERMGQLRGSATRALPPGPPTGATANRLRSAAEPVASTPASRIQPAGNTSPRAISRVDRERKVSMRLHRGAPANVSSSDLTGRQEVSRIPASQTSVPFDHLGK
Chain of CSNK1D (CK1δ) (P48730 whole entry): as the sequence (P48730 whole entry) above
Chain of PIM1 (P11309 whole entry): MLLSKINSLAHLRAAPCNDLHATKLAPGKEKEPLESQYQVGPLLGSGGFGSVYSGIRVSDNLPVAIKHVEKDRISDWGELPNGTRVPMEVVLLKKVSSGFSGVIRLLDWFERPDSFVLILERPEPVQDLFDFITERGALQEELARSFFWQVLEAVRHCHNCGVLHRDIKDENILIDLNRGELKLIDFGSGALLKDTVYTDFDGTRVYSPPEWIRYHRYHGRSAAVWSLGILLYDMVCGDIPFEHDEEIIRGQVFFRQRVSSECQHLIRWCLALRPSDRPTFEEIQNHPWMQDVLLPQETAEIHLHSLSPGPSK

Compound	% Inhibition CK1δ [1] [%]	IC50 [1, 9] [µM]	% Inhibition CK1ε [2] [%]	also measured
CNC(=O)c1ccc2c(c1N)C(=O)c1ccccc1C2=O [Compound 7]		19.4		
Cc1ccc(O)c2c1C(=O)C=CC2=O [Compound 13]		31.2		% Inhibition CK1δ ([1]; 10 µM): 85%; IC50 [1, 8]: 2.41 µM; % Inhibition CK1ε ([2]; 10 µM): 98%; IC50 [2]: 1.19 µM
CC(C)C(C)OC1CC(=O)CC2C(=O)c3c(O)ccc(O)c3C(=O)C12 (stereo not drawn) [Compound 9]		5.8		inhibition of tau phosphorylation at Ser202 (in words) [3]: comparable inhibition potency; inhibition of tau phosphorylation of Ser202 [3]: 55%
O=C1C=C(CBr)C(=O)c2c(O)ccc(O)c21 [Compound 12]		0.7		inhibition of tau phosphorylation at Ser202 (in words) [3]: comparable inhibition potency; % Inhibition CK1δ ([1]; 10 µM): 94%; IC50 [1, 8]: 0.72 µM; % Inhibition CK1ε ([2]; 10 µM): 101%
O=C1c2ccccc2C(=O)c2c(NCCO)cccc21 [Compound 6]		21.2		
COc1cccc2c1C(=O)c1c(O)ccc(O)c1C2=O [Compound 5]		0.2		inhibition of tau phosphorylation at Ser202 (in words) [3]: comparable inhibition potency; inhibition of tau phosphorylation of Ser202 [3]: approximately 43%
COc1cc2cc3c(c(O)c2c(O)c1C=CC(C)C)C(=O)CC(C)(OC(C)=O)C3 (stereo not drawn) [Compound 4]		16.1		
CC(O)C1=CC(=O)c2c(O)ccc(O)c2C1=O (stereo not drawn) [Compound 16]		2.4		inhibition of tau phosphorylation at Ser202 (in words) [3]: comparable inhibition potency
O=Cc1cc(O)c2c(c1O)C(=O)C=CC2=O [Compound 14]		3.1		
CC(C)(C)OC1CC(=O)CC2C(=O)c3cccc(O)c3C(=O)C12 (stereo not drawn) [Compound 8]		18.9		inhibition of tau phosphorylation at Ser202 (in words) [3]: comparable inhibition potency; inhibition of tau phosphorylation of Ser202 [3]: 56%
O=C1C2=C(C(=O)c3c(O)ccc(O)c31)C(O)C(O)C(O)C2 (stereo not drawn) [Compound 2]				inhibition of tau phosphorylation at Ser202 (in words) [3]: did not measure up to them; % Inhibition at 10 μM, PIM3 [4]: 64%; % Inhibition at 10 μM, PIM1 [5]: 66%; % Inhibition at 10 μM, CSNK1D [6]: 70%
CC(C)(C)OC1CC(O)CC2C(=O)c3c(O)ccc(O)c3C(=O)C12 (stereo not drawn) [Compound 10]		10.1		
O=C1C(CO)=C(CO)C(=O)c2c(O)ccc(O)c21 [Compound 11]		27.2		
CC(=O)Oc1ccc(O)c2c1C(=O)C=CC2=O [Compound 3]		0.2		
Cc1cc(O)c2c(c1O)C(=O)C=CC2=O [Compound 15]	31	6.3	58	

The next lines start with results.

% Inhibition CK1δ [1] [%]	IC50 [1, 9] [µM]	% Inhibition CK1ε [2] [%]	Compound	also measured
21			O=C1C(Cl)=C(Cl)C(=O)c2c(O)ccc(O)c21 [Compound 20]	IC50 values of inhibition of CK1δ [1, 7]: could not be determined; IC50 [1, 8]: > 25 µM; % Inhibition CK1ε ([2]; 10 µM): 84%; IC50 [2]: 7.52 µM
1			O=C1C=C(Br)C(=O)c2c(O)ccc(O)c21 [Compound 24]	IC50 values of inhibition of CK1δ [1, 7]: could not be determined; IC50 [1, 8]: > 25 µM; % Inhibition CK1ε ([2]; 10 µM): 96%; IC50 [2]: 2.1 µM
9		13	CCCCCc1cc(O)c2c(c1)C(=O)C=C(C1=CC(=O)c3cc(CCCCC)cc(O)c3C1=O)C2=O [Compound 27]	
17		60	O=C1C=C(c2ccccc2)C(=O)c2c(O)ccc(O)c21 [Compound 23]	
8		14	O=C1C(c2ccccc2)=C(c2ccccc2)C(=O)c2c(O)ccc(O)c21 [Compound 21]	
8		15	CC(C)Cc1cc(O)c2c(c1)C(=O)C=C(C1=CC(=O)c3cc(CC(C)C)cc(O)c3C1=O)C2=O [Compound 29]	
11		48	CC(C)Cc1cc(O)c2c(c1)C(=O)C=CC2=O [Compound 25]	
42			O=C1C(Cl)=C(Cl)C(=O)c2c(O)c(Cl)cc(O)c21 [Compound 19]	IC50 [1, 8]: 9.58 µM; % Inhibition CK1ε ([2]; 10 µM): 88%; selectivity for CK1ε over CK1δ ([2]; from % inhibition at 10 μM): 2 fold
9		13	CC(C)CCc1cc(O)c2c(c1)C(=O)C=C(C1=CC(=O)c3cc(CCC(C)C)cc(O)c3C1=O)C2=O [Compound 28]	
2		39	CC1=C(C)C(=O)c2c(O)c(Cl)cc(O)c2C1=O [Compound 22]	
43		64	CCc1cc(O)c2c(c1)C(=O)C=C(C1=CC(=O)c3cc(CC)cc(O)c3C1=O)C2=O [Compound 26]	
13			O=C1C=CC(=O)c2c(O)c(Cl)cc(O)c21 [Compound 18]	IC50 values of inhibition of CK1δ [1, 7]: could not be determined; IC50 [1, 8]: > 25 µM; % Inhibition CK1ε ([2]; 10 µM): 90%; IC50 [2]: 1.34 µM
6		12	CCCCCCc1cc(O)c2c(c1)C(=O)C=C(C1=CC(=O)c3cc(CCCCCC)cc(O)c3C1=O)C2=O [Compound 30]	
